Laboratory results published in PubChem BioAssay AID248 (DTP/NCI, 2004).
Where “and” joins values, the source holds several entries; their conditions need not be identical. Equal values may be shown once. Inconclusive results and toxic doses are left out.

Tested on: L1210 leukemia ip in BDF1 mice, survival T/C
Test: NCI In Vivo Anticancer Drug Screen. Data for tumor model L1210 Leukemia (intraperitoneal) in B6D2F1 (BDF1) mice
Settings: endpoint: mean survival time, higher = longer survival
In short: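 Ratio derived from survival: compound-dosed mice over vehicle-dosed mice, all bearing a transplantable tumor.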

[1] = dose: 20.0 mg/kg/injection, schedule: Q01DX001 (ip), vehicle: saline
[2] = dose: 5.0 mg/kg/injection, schedule: Q01DX001 (ip), vehicle: saline
[3] = dose: 10.0 mg/kg/injection, schedule: Q01DX001 (ip), vehicle: saline
[4] = dose: 100.0 mg/kg/injection, schedule: Q04DX003 (ip), vehicle: Klucel (hydroxypropylcellulose) (HPC)
[5] = dose: 200.0 mg/kg/injection, schedule: Q04DX003 (ip), vehicle: Klucel (hydroxypropylcellulose) (HPC)
[6] = dose: 400.0 mg/kg/injection, schedule: Q04DX003 (ip), vehicle: Klucel (hydroxypropylcellulose) (HPC)

O=CC(NC(=O)N(CCCl)N=O)C(O)C(O)C(O)CO (stereo unspecified)
T/C (dose: 2.0 mg/kg/injection, schedule: Q01DX009 (ip), vehicle: carboxymethylcellulose (CMC)): 169 % of control | T/C (dose: 2.0 mg/kg/injection, schedule: Q01DX009 (ip), vehicle: other): 163 % of control | T/C (dose: 2.0 mg/kg/injection, schedule: Q01DX009 (ip), vehicle: saline): 172 % of control | T/C (dose: 3.0 mg/kg/injection, schedule: Q01DX009 (ip), vehicle: carboxymethylcellulose (CMC)): 186 % of control | T/C (dose: 3.0 mg/kg/injection, schedule: Q01DX009 (ip), vehicle: other): 180 % of control | T/C (dose: 3.0 mg/kg/injection, schedule: Q01DX009 (ip), vehicle: saline): 259 % of control | T/C (dose: 4.4 mg/kg/injection, schedule: Q01DX009 (ip), vehicle: carboxymethylcellulose (CMC)): 204 % of control | T/C (dose: 4.4 mg/kg/injection, schedule: Q01DX009 (ip), vehicle: other): 290 % of control | T/C (dose: 4.4 mg/kg/injection, schedule: Q01DX009 (ip), vehicle: saline): 308 % of control | T/C (dose: 4.5 mg/kg/injection, schedule: Q01DX009 (ip), vehicle: saline): 154 % of control | T/C (dose: 6.0 mg/kg/injection, schedule: Q01DX001 (ip), vehicle: carboxymethylcellulose (CMC)): 152 % of control | T/C (dose: 6.0 mg/kg/injection, schedule: Q01DX001 (ip), vehicle: other): 154 % of control | T/C (dose: 6.7 mg/kg/injection, schedule: Q01DX009 (ip), vehicle: carboxymethylcellulose (CMC)): 318 % of control | T/C (dose: 6.7 mg/kg/injection, schedule: Q01DX009 (ip), vehicle: other): 151 % of control | T/C (dose: 6.7 mg/kg/injection, schedule: Q01DX009 (ip), vehicle: saline): 471 % of control | T/C (dose: 6.8 mg/kg/injection, schedule: Q01DX009 (ip), vehicle: saline): 207 % of control | T/C (dose: 9.0 mg/kg/injection, schedule: Q01DX001 (ip), vehicle: carboxymethylcellulose (CMC)): 208 % of control and 213 % of control | T/C (dose: 9.0 mg/kg/injection, schedule: Q01DX001 (ip), vehicle: other): 155 % of control | T/C (dose: 9.0 mg/kg/injection, schedule: Q01DX001 (ip), vehicle: saline): 336 % of control | T/C (dose: 10.0 mg/kg/injection, schedule: Q01DX009 (ip), vehicle: carboxymethylcellulose (CMC)): 281 % of control | T/C (dose: 10.0 mg/kg/injection, schedule: Q01DX009 (ip), vehicle: other): 107 % of control | T/C (dose: 10.0 mg/kg/injection, schedule: Q01DX009 (ip), vehicle: saline): 152 % of control and 243 % of control | T/C (dose: 13.0 mg/kg/injection, schedule: Q01DX001 (ip), vehicle: carboxymethylcellulose (CMC)): 273 % of control and 302 % of control | T/C (dose: 13.0 mg/kg/injection, schedule: Q01DX001 (ip), vehicle: other): 272 % of control | T/C (dose: 13.0 mg/kg/injection, schedule: Q01DX001 (ip), vehicle: saline): 211 % of control and 424 % of control | T/C (dose: 18.0 mg/kg/injection, schedule: Q01DX001 (ip), vehicle: saline): 505 % of control | T/C (dose: 20.0 mg/kg/injection, schedule: Q01DX001 (ip), vehicle: carboxymethylcellulose (CMC)): 455 % of control and 531 % of control | T/C (dose: 20.0 mg/kg/injection, schedule: Q01DX001 (ip), vehicle: other): 575 % of control | T/C [1]: 296 % of control and 486 % of control | T/C (dose: 26.0 mg/kg/injection, schedule: Q01DX001 (ip), vehicle: saline): 505 % of control | T/C (dose: 30.0 mg/kg/injection, schedule: Q01DX001 (ip), vehicle: carboxymethylcellulose (CMC)): 282 % of control and 537 % of control | T/C (dose: 30.0 mg/kg/injection, schedule: Q01DX001 (ip), vehicle: other): 506 % of control | T/C (dose: 30.0 mg/kg/injection, schedule: Q01DX001 (ip), vehicle: saline): 284 % of control and 617 % of control | T/C (dose: 44.0 mg/kg/injection, schedule: Q01DX001 (ip), vehicle: carboxymethylcellulose (CMC)): 162 % of control | T/C (dose: 45.0 mg/kg/injection, schedule: Q01DX001 (ip), vehicle: carboxymethylcellulose (CMC)): 266 % of control | T/C (dose: 45.0 mg/kg/injection, schedule: Q01DX001 (ip), vehicle: other): 153 % of control

O=S1(=O)CCC2CCCCC2C1 (stereo unspecified)
T/C (dose: 6.25 mg/kg/injection, schedule: Q01DX009 (ip), vehicle: saline with Tween-80): 94 % of control | T/C (dose: 12.5 mg/kg/injection, schedule: Q01DX009 (ip), vehicle: saline with Tween-80): 100 % of control | T/C (dose: 25.0 mg/kg/injection, schedule: Q01DX009 (ip), vehicle: saline with Tween-80): 90 % of control

Cc1ccc(N=Nc2c(O)ccc3ccccc23)c([N+](=O)[O-])c1
T/C (dose: 100.0 mg/kg/injection, schedule: Q01DX001 (ip), vehicle: other): 96 % of control | T/C (dose: 100.0 mg/kg/injection, schedule: Q04DX003 (ip), vehicle: other): 95 % of control | T/C (dose: 200.0 mg/kg/injection, schedule: Q01DX001 (ip), vehicle: other): 95 % of control | T/C (dose: 200.0 mg/kg/injection, schedule: Q04DX003 (ip), vehicle: other): 91 % of control | T/C (dose: 400.0 mg/kg/injection, schedule: Q01DX001 (ip), vehicle: other): 96 % of control | T/C (dose: 400.0 mg/kg/injection, schedule: Q04DX003 (ip), vehicle: other): 93 % of control

COc1cc(OC)c2c(=O)c3ccoc3n(C)c2c1OC
T/C (dose: 50.0 mg/kg/injection, schedule: Q01DX001 (ip), vehicle: carboxymethylcellulose (CMC)): 98 % of control | T/C (dose: 100.0 mg/kg/injection, schedule: Q01DX001 (ip), vehicle: carboxymethylcellulose (CMC)): 98 % of control | T/C (dose: 200.0 mg/kg/injection, schedule: Q01DX001 (ip), vehicle: carboxymethylcellulose (CMC)): 93 % of control | T/C (dose: 400.0 mg/kg/injection, schedule: Q01DX001 (ip), vehicle: carboxymethylcellulose (CMC)): 93 % of control

[O-]/[N+](=C\c1ccc(/C=[N+](\[O-])c2ccccc2)cc1)c1ccccc1
T/C [2]: 97 % of control | T/C [3]: 95 % of control | T/C [1]: 97 % of control | T/C (dose: 40.0 mg/kg/injection, schedule: Q01DX001 (ip), vehicle: saline): 92 % of control | T/C (dose: 80.0 mg/kg/injection, schedule: Q01DX001 (ip), vehicle: saline): 97 % of control

CC1(COC(=O)Nc2cccc3ccccc23)CC2C=CC1C2 (stereo unspecified)
T/C (dose: 75.0 mg/kg/injection, schedule: Q01DX001 (ip), vehicle: saline with Tween-80): 96 % of control | T/C (dose: 150.0 mg/kg/injection, schedule: Q01DX001 (ip), vehicle: saline with Tween-80): 91 % of control | T/C (dose: 300.0 mg/kg/injection, schedule: Q01DX001 (ip), vehicle: saline with Tween-80): 88 % of control

CN1C(=O)C2CCCN2C(=O)C1(C)O (stereo unspecified)
T/C (dose: 100.0 mg/kg/injection, schedule: Q04DX002 (ip), vehicle: saline): 90 % of control | T/C (dose: 200.0 mg/kg/injection, schedule: Q04DX002 (ip), vehicle: saline): 97 % of control | T/C (dose: 400.0 mg/kg/injection, schedule: Q04DX002 (ip), vehicle: saline): 97 % of control

O=C([O-])C(=O)[O-].[Cu+2].[OH2+]CC[N-]CC[OH2+].[OH2+]CC[N-]CC[OH2+]
T/C [2]: 97 % of control | T/C [3]: 92 % of control | T/C [1]: 103 % of control

NSc1ccccc1[N+](=O)[O-]
T/C [4]: 100 % of control | T/C [5]: 105 % of control | T/C [6]: 100 % of control

CCN(CC)C(=O)/C=C/c1ccccc1
T/C (dose: 50.0 mg/kg/injection, schedule: Q01DX001 (ip), vehicle: saline): 102 % of control | T/C (dose: 100.0 mg/kg/injection, schedule: Q01DX001 (ip), vehicle: saline): 96 % of control | T/C (dose: 200.0 mg/kg/injection, schedule: Q01DX001 (ip), vehicle: saline): 96 % of control

C1CCC(=NN=C2CCCCC2)CC1
T/C (dose: 100.0 mg/kg/injection, schedule: Q01DX009 (sc), vehicle: olive oil, sesame oil, peanut oil): 103 % of control | T/C (dose: 100.0 mg/kg/injection, schedule: Q04DX003 (sc), vehicle: olive oil, sesame oil, peanut oil): 100 % of control | T/C (dose: 200.0 mg/kg/injection, schedule: Q01DX009 (sc), vehicle: olive oil, sesame oil, peanut oil): 100 % of control | T/C (dose: 200.0 mg/kg/injection, schedule: Q04DX003 (sc), vehicle: olive oil, sesame oil, peanut oil): 106 % of control | T/C (dose: 400.0 mg/kg/injection, schedule: Q01DX009 (sc), vehicle: olive oil, sesame oil, peanut oil): 101 % of control | T/C (dose: 400.0 mg/kg/injection, schedule: Q04DX003 (sc), vehicle: olive oil, sesame oil, peanut oil): 105 % of control

Cc1ccc(N=Cc2cccc([N+](=O)[O-])c2)cc1
T/C (dose: 100.0 mg/kg/injection, schedule: Q01DX001 (ip), vehicle: Klucel (hydroxypropylcellulose) (HPC)): 100 % of control | T/C [4]: 98 % of control | T/C (dose: 200.0 mg/kg/injection, schedule: Q01DX001 (ip), vehicle: Klucel (hydroxypropylcellulose) (HPC)): 94 % of control | T/C [5]: 100 % of control | T/C (dose: 400.0 mg/kg/injection, schedule: Q01DX001 (ip), vehicle: Klucel (hydroxypropylcellulose) (HPC)): 91 % of control | T/C [6]: 103 % of control
